The test system of one test is NCI-H1703 cells. Description: GLS Cell Proliferation Assay (NCI-H1703 cell proliferation). The format is cell-based. The text has this:
(§1) The following assays were used to measure the effects of the compounds described herein: a) GLS Enzyme Potency Assay; b) GLS Cell Potency Assay; c) GLS Cell Proliferation Assay. During the description of the assays, generally: • i. The following abbreviations have been used: CO2=Carbon dioxide; DMEM=Dulbecco's Modified Eagle Medium; DMSO=Dimethyl sulphoxide; EDTA=Ethylenediaminetetraacetic acid; EGTA=Ethylene glycol tetraacetic acid; FCS=Foetal calf serum; h=Hour(s); NBS=Non-binding surface; SDS=Sodium dodecyl sulphate; TRIS=Tris(Hydroxymethyl)aminomethane. • ii. IC50 values were calculated using a smart fitting model in Genedata.
Assay c): GLS Cell Proliferation Assay
The ability of compounds to inhibit cell growth was measured using a 384 well plate NCI-H1703 cell proliferation assay. NCI-H1703 cells were grown in phenol red free RPMI1640, 10% FCS and 2 mM glutamine and seeded at a density of 750 cells per well in 40 μl of growth medium into clear-bottom 384 well assay plates (Corning product code 3712) and incubated for 24 h at 37° C., 5% CO2. Test compounds were prepared by dilution in 100% DMSO to give the correct dose range for 12 point concentration response and an appropriate volume (5-120 nl) dispensed directly into the assay plates containing plated cells. DMSO concentration was maintained at 0.3% by back filling with DMSO solution. Plates were incubated for 5 days at 37° C., 5% CO2, Sytox Green and Saponin added to final concentration of 2 μM and 0.25% respectively and incubated for 6 h prior to analysis. Plates were read on an Acumen eX3 (TTP Labtech) using 488 nm excitation and FITC filter set (500-530 nm) for emission. IC50 values were calculated by curve fitting to max inhibition of day zero growth using GeneData software analysis.

The target of the next test is GLS1 (Homo sapiens (Human), UniProt O94925). Description: GLS Enzyme Potency Assay (Glutamate Oxidase/AmplexRed coupled assay). It counts as biochemical.
GLS1, sequence (O94925 63-669): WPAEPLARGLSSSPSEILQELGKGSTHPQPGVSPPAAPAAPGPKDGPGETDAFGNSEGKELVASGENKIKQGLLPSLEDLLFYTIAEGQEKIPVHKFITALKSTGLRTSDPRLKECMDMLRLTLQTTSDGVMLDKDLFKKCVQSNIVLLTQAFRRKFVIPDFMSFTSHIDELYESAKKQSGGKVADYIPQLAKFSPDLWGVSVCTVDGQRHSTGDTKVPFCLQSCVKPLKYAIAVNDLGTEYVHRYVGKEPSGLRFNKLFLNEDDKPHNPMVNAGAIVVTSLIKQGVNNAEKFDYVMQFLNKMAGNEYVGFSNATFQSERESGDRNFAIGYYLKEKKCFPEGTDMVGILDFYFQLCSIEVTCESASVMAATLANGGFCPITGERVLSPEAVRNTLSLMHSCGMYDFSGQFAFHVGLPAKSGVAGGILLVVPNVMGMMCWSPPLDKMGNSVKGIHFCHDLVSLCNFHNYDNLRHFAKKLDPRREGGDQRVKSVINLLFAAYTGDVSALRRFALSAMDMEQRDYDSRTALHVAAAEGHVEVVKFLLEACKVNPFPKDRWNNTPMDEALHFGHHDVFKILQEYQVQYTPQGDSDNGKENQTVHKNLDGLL
Excerpt: as §1
Assay a): GLS Enzyme Potency Assay
A Glutamate Oxidase/AmplexRed coupled assay was used to measure the ability of compounds to bind to and inhibit the activity of GLS1 in vitro. […] GLS1 was diluted to 2×working concentration and incubated at room temperature to allow the tetrameric/dimeric forms to reach steady state. Assay measurements were performed in buffer comprising 50 mM TRIS pH 7.8, 100 mM NaPO4, pH 7.8, 0.001% v/v Tween20. […] DMSO concentration was maintained at 2% by back filling with DMSO solution. […] 3 μL of 100 mM glutamine diluted in assay buffer was then added and the reaction incubated at room temperature for 60 minutes. […] An artefact version of the assay where the 6His tagged GLS protein and glutamine were replaced with assay buffer was also used to rule out non specific effects on the assay components.

Test [1] has as its target cellular GLS activity in PC3 cells (Homo sapiens (Human), UniProt O94925). Description: GLS Cell Potency Assay (PC3 coupled assay measuring cellular glutamate depletion). The format is cell-based. The note with it: PC3 cells, 6 h incubation, cellular glutamate depletion; read-out: Assay b) GLS cell MOA Mean IC50.
Excerpt: as §1
Assay b): GLS Cell Potency Assay
Compounds were assessed for their potential to inhibit cellular GLS activity by use of a PC3 coupled assay measuring cellular glutamate depletion. […] DMSO concentration was maintained at 0.3% by back filling with DMSO solution. PC3 cells were grown in phenol free DMEM, 10% dialyzed FCS, 2 mM glutamine and following dispersal by trypsinisation were plated at 5.6×10^3 cells per well in 40 μl of growth medium directly into the 384 well assay plates containing dispensed compound. After incubation for 6 h at 37° C., 5% CO2 growth media was aspirated and cells lysed in 15 μl of buffer containing 10 mM TRIS pH7.4, 100 mM NaCl, 1 mM EDTA, 1 mM EGTA, 1 mM NaF, 20 mM Na4P2O7, 2 mM Na3VO4, 1% Triton X-100, 10% glycerol, 0.1% SDS and 0.5% deoxycholate. 4 μl Of cell lysate was then transferred to a 384 well NBS plate (Corning product code 3575) and 35 μl of […] Amplex Red, 0.1375 U/mL Horseradish Peroxidase, 0.044 U/mL glutamate oxidase, 100 mM TRIS pH7.5 was added.

Setting [2] is: Homo sapiens, 120 h; NCI-H1703 cells, 5 days incubation, Sytox Green; read-out: Assay c) Prolif Mean IC50.
Where [3] appears, read: recombinant 6His tagged GLS protein (amino acids 63-669), 60 minutes reaction with glutamine.
[4] abbreviates: Homo sapiens, NCI-H1703, 120 h, NCI-H1703 cells, 5 days incubation, Sytox Green; read-out: Assay c) Prolif Mean IC50.

Read-outs that look alike come from different tables or passages of the source.

cellular GLS activity in PC3 cells, sequence (O94925 55-669): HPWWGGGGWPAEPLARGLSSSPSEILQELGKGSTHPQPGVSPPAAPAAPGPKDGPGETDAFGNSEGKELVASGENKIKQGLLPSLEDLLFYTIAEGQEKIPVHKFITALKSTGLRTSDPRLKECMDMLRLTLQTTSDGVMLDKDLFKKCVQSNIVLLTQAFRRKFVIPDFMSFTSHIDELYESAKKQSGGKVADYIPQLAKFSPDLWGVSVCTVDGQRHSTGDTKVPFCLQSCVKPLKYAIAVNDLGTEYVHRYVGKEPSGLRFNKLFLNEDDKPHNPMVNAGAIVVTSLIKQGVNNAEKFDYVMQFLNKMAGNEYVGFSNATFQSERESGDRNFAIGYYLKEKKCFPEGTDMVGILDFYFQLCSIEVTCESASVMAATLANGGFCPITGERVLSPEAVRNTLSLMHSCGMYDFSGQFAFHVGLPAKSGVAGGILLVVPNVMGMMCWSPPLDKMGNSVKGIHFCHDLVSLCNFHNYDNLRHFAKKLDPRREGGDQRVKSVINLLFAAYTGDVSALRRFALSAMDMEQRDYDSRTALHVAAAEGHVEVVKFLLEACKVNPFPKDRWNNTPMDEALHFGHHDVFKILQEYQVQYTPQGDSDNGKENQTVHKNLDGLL

As a reminder, the IC50 is the concentration needed to halve the response being measured. As for `CN(C)[C@@H](C(=O)Nc1nnc(N[C@@H]2CCN(c3cccnn3)C2)s1)c1ccc(F)cc1` (single isomer, unassigned) [Example 2(b)], the IC50 in the test on NCI-H1703 cells (setting [2]) was determined as 97.9 nM.

As to `O=C(Nc1nnc(N[C@@H]2CCN(c3cccnn3)C2)s1)[C@H](c1ccc(F)c(OC(F)(F)F)c1)N1CCC1` [Example 11(a), (2S)-2-(Azetidin-1-yl)-2-[4-fluoro-3-(trifluoromethoxy)phenyl]-N-[5-[[(3R)-1-pyridazin-3-ylpyrrolidin-3-yl]amino]-1,3,4-thiadiazol-2-yl]acetamide], the half-maximal inhibitory concentration (IC50) is 952 nM on GLS1 (setting [3]), 19.1 nM with NCI-H1703 cells (setting [4]) and 30.8 nM in test [1].

In the case of `CN(C)[C@H](C(=O)Nc1nnc(N[C@@H]2CCN(c3cccnn3)C2)s1)c1ccccc1` [Example 1(a), (2S)-2-(Dimethylamino)-2-phenyl-N-[5-[[(3R)-1-pyridazin-3-ylpyrrolidin-3-yl]amino]-1,3,4-thiadiazol-2-yl]acetamide], the half-inhibitory concentration (IC50) in the test on NCI-H1703 cells (setting [2]) turned out to be 68.6 nM.

Regarding `CN(C)[C@@H](C(=O)Nc1nnc(N[C@@H]2CCN(c3cccnn3)C2)s1)c1ccccc1` (single isomer, unassigned) [Example 1(b)], the IC50 with NCI-H1703 cells (setting [2]) worked out at 54.7 nM.

Take `O=C(Nc1nnc(N[C@@H]2CCN(c3cccnn3)C2)s1)[C@@H](c1cccc(OC(F)F)c1)N1CCC1` (single isomer, unassigned) [Example 5(b)]: the IC50 with NCI-H1703 cells (setting [2]) came out at 13.2 nM.

Consider `CN(C)[C@@H](C(=O)Nc1nnc(N[C@@H]2CCN(c3cccnn3)C2)s1)c1cccc(OC(F)(F)F)c1` [Example 14, (2R)-2-(dimethylamino)-N-[5-[[(3R)-1-pyridazin-3-ylpyrrolidin-3-yl]amino]-1,3,4-thiadiazol-2-yl]-2-[3-(trifluoromethoxy)phenyl]acetamide], for which the IC50 is 2260 nM on GLS1 (setting [3]), 5.23 nM with NCI-H1703 cells (setting [4]) and 10.2 nM in test [1].

Take `CN(C)[C@H](C(=O)Nc1nnc(N[C@@H]2CCN(c3cccnn3)C2)s1)c1ccc(F)cc1` [Example 2(a), (2S)-2-(dimethylamino)-2-(4-fluorophenyl)-N-[5-[[(3R)-1-pyridazin-3-ylpyrrolidin-3-yl]amino]-1,3,4-thiadiazol-2-yl]acetamide]: the IC50 with NCI-H1703 cells (setting [2]) was found to be 89.6 nM.

Regarding `O=C(Nc1nnc(N[C@@H]2CCN(c3cccnn3)C2)s1)[C@@H](c1cccc(OC(F)(F)F)c1)N1CCC1` [Example 7(b), (2R)-2-(azetidin-1-yl)-N-[5-[[(3R)-1-pyridazin-3-ylpyrrolidin-3-yl]amino]-1,3,4-thiadiazol-2-yl]-2-[3-(trifluoromethoxy)phenyl]acetamide], the results for the IC50 (at GLS1; with NCI-H1703 cells (setting [2]); in test [1]) were 102 nM, 2.45 nM and 0.985 nM, respectively.

`O=C(Nc1nnc(N[C@@H]2CCN(c3ccc(F)nn3)C2)s1)[C@H](c1cccc(OC(F)(F)F)c1)N1CCC1` [Example 12(a), (2S)-2-(azetidin-1-yl)-N-[5-[[(3R)-1-(6-fluoropyridazin-3-yl)pyrrolidin-3-yl]amino]-1,3,4-thiadiazol-2-yl]-2-[3-(trifluoromethoxy)phenyl]acetamide]: the concentration for half-maximal inhibition (IC50) on GLS1 (setting [3]) came out at 2510 nM; in the test on NCI-H1703 cells (setting [2]), 11.6 nM; in test [1], 15.3 nM.

With `COc1cccc([C@@H](C(=O)Nc2nnc(N[C@@H]3CCN(c4cccnn4)C3)s2)N2CCC2)c1` [Example 6(a), (2S)-2-(azetidin-1-yl)-2-(3-methoxyphenyl)-N-[5-[[(3R)-1-pyridazin-3-ylpyrrolidin-3-yl]amino]-1,3,4-thiadiazol-2-yl]acetamide], the IC50 turned out to be 981 nM on GLS1 (setting [3]), 29.3 nM in the test on NCI-H1703 cells (setting [4]) and 22 nM in test [1].

For the molecule `CN(C)[C@@H](C(=O)Nc1nnc(N[C@@H]2CCN(c3cccnn3)C2)s1)c1cccc(OC(F)F)c1` [Example 3(b), (2R)-2-[3-(difluoromethoxy)phenyl]-2-(dimethylamino)-N-[5-[[(3R)-1-pyridazin-3-ylpyrrolidin-3-yl]amino]-1,3,4-thiadiazol-2-yl]acetamide], the IC50 worked out at 52.4 nM against GLS1, 8.25 nM in the test with NCI-H1703 cells (setting [2]) and 0.295 nM in test [1].

With `CN(C)[C@H](C(=O)Nc1nnc(N[C@@H]2CCN(c3cccnn3)C2)s1)c1cccc(C#N)c1` [Example 13, (2S)-2-(3-cyanophenyl)-2-(dimethylamino)-N-[5-[[(3R)-1-pyridazin-3-ylpyrrolidin-3-yl]amino]-1,3,4-thiadiazol-2-yl]acetamide], the IC50 against GLS1 came to 226 nM; in the test with NCI-H1703 cells (setting [2]) it was 76.8 nM; in test [1], 11.3 nM.

As for `CN(C)[C@@H](C(=O)Nc1nnc(N[C@@H]2CCN(c3cccnn3)C2)s1)c1cccc(OC(F)(F)F)c1` (single isomer, unassigned) [Example 4(b)], the IC50 came to 522 nM against GLS1, 2.52 nM in the test with NCI-H1703 cells (setting [4]) and 1.91 nM in test [1].

As for `COc1ccc([C@@H](C(=O)Nc2nnc(N[C@@H]3CCN(c4cccnn4)C3)s2)N(C)C)cc1` [Example 16, (2S)-2-(dimethylamino)-2-(4-methoxyphenyl)-N-[5-[[(3R)-1-pyridazin-3-ylpyrrolidin-3-yl]amino]-1,3,4-thiadiazol-2-yl]acetamide], the IC50 on GLS1 (setting [3]) worked out at 198 nM; in the test with NCI-H1703 cells (setting [4]) it was 131 nM; in test [1], 4.76 nM.

For `O=C(Nc1nnc(N[C@@H]2CCN(c3cccnn3)C2)s1)[C@@H](c1ccc(F)c(OC(F)(F)F)c1)N1CCC1` (single isomer, unassigned) [Example 11(b)], the IC50 on GLS1 is 132 nM; with NCI-H1703 cells (setting [4]), 30.1 nM; in test [1] it was 1.77 nM.

`CN1CCc2ccccc2[C@@H]1C(=O)Nc1nnc(N[C@@H]2CCN(c3cccnn3)C2)s1` [Example 8(b), (1R)-2-methyl-N-[5-[[(3R)-1-pyridazin-3-ylpyrrolidin-3-yl]amino]-1,3,4-thiadiazol-2-yl]-3,4-dihydro-1H-isoquinoline-1-carboxamide]: the IC50 against GLS1 was 194 nM; in the test with NCI-H1703 cells (setting [2]), 85.1 nM; in test [1], 20.9 nM.

Take `O=C(Nc1nnc(N[C@@H]2CCN(c3ccc(F)nn3)C2)s1)[C@@H](c1cccc(OC(F)(F)F)c1)N1CCC1` [Example 12(b), (2R)-2-(azetidin-1-yl)-N-[5-[[(3R)-1-(6-fluoropyridazin-3-yl)pyrrolidin-3-yl]amino]-1,3,4-thiadiazol-2-yl]-2-[3-(trifluoromethoxy)phenyl]acetamide]: the IC50 was 246 nM at GLS1, 12.9 nM in the test with NCI-H1703 cells (setting [2]) and 1.41 nM in test [1].

As to `Cc1ccccc1[C@@H](C(=O)Nc1nnc(N[C@@H]2CCN(c3cccnn3)C2)s1)N(C)C` [Example 17, (2S)-2-(dimethylamino)-2-(o-tolyl)-N-[5-[[(3R)-1-pyridazin-3-ylpyrrolidin-3-yl]amino]-1,3,4-thiadiazol-2-yl]acetamide], the IC50 at GLS1 (setting [3]) was determined as 187 nM; with NCI-H1703 cells (setting [2]), 163 nM; in test [1], 10.7 nM.

Regarding `O=C(Nc1nnc(N[C@@H]2CCN(c3cccnn3)C2)s1)[C@H](c1cccc(OC(F)F)c1)N1CCC1` [Example 5(a), (2S)-2-(azetidin-1-yl)-2-[3-(difluoromethoxy)phenyl]-N-[5-[[(3R)-1-pyridazin-3-ylpyrrolidin-3-yl]amino]-1,3,4-thiadiazol-2-yl]acetamide], the IC50 in the test with NCI-H1703 cells (setting [2]) amounted to 29.3 nM.
